*1 amine or outer side, *2 acyl side, *3 side chain or, on linkers, in order; H or OH if unused. Where a SMILES comes first, the peptide text is derived from it. Bridges are numbered along the chain shown (N, C = ends). [ ]: non-standard residue; d: D form. The star is where a group is joined. ξ: configuration not given here. hPhe(3-OMe,4-CONHMe) = CNC(=O)c1ccc(CC[C@H](N)C(=O)O)cc1OC; Glu(NHSO2Me) = CS(=O)(=O)NC(=O)CC[C@H](N)C(=O)O; NMePhe(3-Cl) = CN[C@@H](Cc1cccc(Cl)c1)C(=O)O; Tyr(3-OMe) = COc1cc(C[C@H](N)C(=O)O)ccc1O; NMehPhe = CN[C@@H](CCc1ccccc1)C(=O)O; Hyp = O=C(O)[C@@H]1C[C@@H](O)CN1; NMeF = CN[C@@H](Cc1ccccc1)C(=O)O; NMeGABA = CN(CCCC(=O)[*:2])[*:1]; NMeI = CC[C@H](C)[C@H](NC)C(=O)O; NMeL = CN[C@@H](CC(C)C)C(=O)O; Butyl(3R-OH) = C[C@@H](O)CC*; Propyl(2R-OH) = C[C@@H](O)C*; Butyl(3S-OH) = C[C@H](O)CC*; NMeV = CN[C@H](C(=O)O)C(C)C; NMeAbu = CC[C@H](NC)C(=O)O; Piperidide = C1CCN(*)CC1; NBuGly = CCCCNCC(=O)O; Isopentyl = CC(C)CC*; NPrGly = CCCNCC(=O)O; Ethyl(2-OH) = OCC*; ξS = NC(CO)C(=O)O; Sar = CNCC(=O)O; tBu = CC(C)(C)*
assay: in vitro; details: human, Caco-2, Caco-2

Question: For CCCCN1CC(=O)N(C)[C@@H](CC(C)C)C(=O)N[C@@H](CC(C)C)C(=O)N(C)[C@@H](Cc2ccccc2)C(=O)N(C)[C@@H](C(C)C)C(=O)N[C@H](C(=O)N2CCCCC2)CC(=O)N[C@H](CC(C)C)C(=O)N(C)[C@@H](Cc2cccc(Cl)c2)C(=O)N[C@@H](CCC(=O)NS(C)(=O)=O)C(=O)N(C)[C@@H](CC(C)C)C(=O)N[C@@H]([C@@H](C)O)C1=O [pd59] ([dL][NMePhe(3-Cl)][Glu(NHSO2Me)][NMeL]T[NBuGly][NMeL]L[NMeF][NMeV]D-Piperidide; lactam N-11), which Papp is on record?
Answer: < 0.0088 ×10⁻⁶ cm/s

same assay, conditions: human, Caco-2, Caco-2 (cm/sec)

Question: Which Papp does the source give for CCCCN1CC(=O)N[C@@H](CC(C)C)C(=O)N2CCC[C@H]2C(=O)N(C)[C@@H](C(C)C)C(=O)N[C@@H](CCc2ccc(C(=O)NC)c(OC)c2)C(=O)N(C)[C@@H](Cc2ccccc2)C(=O)N(C)[C@@H](CC(C)C)C(=O)N[C@@H](CC(C)C)C(=O)N(C)[C@@H]([C@@H](C)CC)C(=O)N[C@H](C(=O)N2CCCCC2)CC(=O)N[C@H](C(C)C)C(=O)N[C@@H]([C@@H](C)O)C1=O [AP265] ([dV]T[NBuGly]LP[NMeV][hPhe(3-OMe,4-CONHMe)][NMeF][NMeL]L[NMeI]D-Piperidide; lactam N-12) here?
Answer: 0.46 ×10⁻⁶ cm/s

Question: Which Papp does the source give for CC(C)C[C@H]1C(=O)N[C@@H]([C@@H](C)O)C(=O)N(C)[C@@H](CC(C)C)C(=O)N(C)[C@@H](CC(C)C)C(=O)N[C@H](C(=O)N2CCCCC2)CC(=O)N(C)CCCC(=O)N(C)[C@@H](C(C)C)C(=O)NC(COCC[C@H](C)O)C(=O)N(C)[C@@H](Cc2ccccc2)C(=O)N(C)[C@@H](Cc2cccc(Cl)c2)C(=O)N[C@@H](COC(C)(C)C)C(=O)N1C (stereo partly drawn) [AP101] ([NMeGABA][NMeV][ξS](Butyl(3S-OH))[NMeF][NMePhe(3-Cl)]S(tBu)[NMeL]T[NMeL][NMeL]D-Piperidide; lactam N-11) here?
Answer: 0.59 ×10⁻⁶ cm/s

Question: For CC(C)C[C@@H]1NC(=O)[C@H](Cc2ccccc2)N(C)C(=O)[C@@H](C(C)C)NC(=O)C[C@@H](C(=O)N2CCCCC2)NC(=O)[C@H](CC(C)C)N(C)C(=O)[C@H](Cc2cccc(Cl)c2)N(C)C(=O)[C@H](COCC[C@@H](C)O)NC(=O)[C@H](CC(C)C)N(C)C(=O)CN(C)C(=O)[C@H]([C@@H](C)O)NC(=O)[C@H](CC(C)C)N(C)C1=O [AP109] ([dV][NMeF]L[NMeL]T[Sar][NMeL]S(Butyl(3R-OH))[NMePhe(3-Cl)][NMeL]D-Piperidide; lactam N-11), which Papp is on record?
Answer: 0.64 ×10⁻⁶ cm/s

Question: Which Papp does the source give for CCCCN1CC(=O)N(C)[C@@H](Cc2ccccc2)C(=O)N(C)[C@@H](CC(C)C)C(=O)N[C@@H](Cc2ccc(O)c(OC)c2)C(=O)N(C)[C@@H](CC(C)C)C(=O)N[C@H](C(=O)N2CCCCC2)CC(=O)N(C)CC(=O)N(C)[C@@H](CC(C)C)C(=O)N[C@@H]([C@@H](C)CC)C(=O)N(C)[C@@H](CC(C)C)C(=O)N[C@@H]([C@@H](C)O)C1=O [Compound E08] ([Sar][NMeL]I[NMeL]T[NBuGly][NMeF][NMeL][Tyr(3-OMe)][NMeL]D-Piperidide; lactam N-11) here?
Answer: 0.12 ×10⁻⁶ cm/s

Question: With CC(C)C[C@H]1NC(=O)C[C@@H](C(=O)N2CCCCC2)NC(=O)[C@H](CC(C)C)N(C)C(=O)[C@H](Cc2ccccc2)NC(=O)[C@H](Cc2ccccc2)N(C)C(=O)[C@H]([C@@H](C)O)NC(=O)[C@H](CC(C)C)N(C)C(=O)[C@@H]2C[C@@H](OCCO)CN2C(=O)[C@H](CC(C)C)N(C)C(=O)[C@H](COC(C)(C)C)NC(=O)[C@@H]2CCCN2C1=O [AP234] ([dL]PS(tBu)[NMeL][Hyp](Ethyl(2-OH))[NMeL]T[NMeF]F[NMeL]D-Piperidide; lactam N-11) as the compound, how does the Papp read?
Answer: 1.3 ×10⁻⁶ cm/s

Question: With CC[C@H]1C(=O)N[C@@H](CC(C)C)C(=O)N(C)[C@@H](CC(C)C)C(=O)N(C)[C@@H](Cc2ccccc2)C(=O)N[C@@H](Cc2ccc(O)c(OC)c2)C(=O)N(C)[C@@H](CC(C)C)C(=O)N(C)[C@@H](CC(C)C)C(=O)N[C@@H]([C@@H](C)O)C(=O)N(C)CC(=O)N(C)[C@@H](CC(C)C)C(=O)N[C@H](C(=O)N2CCCCC2)CC(=O)N1C [Compound E05] ([NMeAbu]L[NMeL][NMeF][Tyr(3-OMe)][NMeL][NMeL]T[Sar][NMeL]D-Piperidide; lactam N-11) as the compound, how does the Papp read?
Answer: 1.8 ×10⁻⁶ cm/s

Question: With CCCN1CC(=O)N(C)[C@@H](CC(C)C)C(=O)N[C@@H](COCCC(C)C)C(=O)N(C)[C@@H](Cc2ccccc2)C(=O)N(C)[C@@H](CC(C)C)C(=O)N[C@H](C(=O)N2CCCCC2)CC(=O)N[C@H](C(C)C)C(=O)N(C)[C@@H](CCc2ccccc2)C(=O)N[C@@H](COCCO)C(=O)N(C)[C@@H](CC(C)C)C(=O)N[C@@H]([C@@H](C)O)C1=O [Compound A01] ([dV][NMehPhe]S(Ethyl(2-OH))[NMeL]T[NPrGly][NMeL]S(Isopentyl)[NMeF][NMeL]D-Piperidide; lactam N-11) as the compound, how does the Papp read?
Answer: 0.6 ×10⁻⁶ cm/s

Question: With CCCCN1CC(=O)N(C)[C@@H](Cc2ccccc2)C(=O)N(C)[C@@H](CC(C)C)C(=O)N[C@@H](COC(C)(C)C)C(=O)N(C)[C@@H](CC(C)C)C(=O)N[C@H](C(=O)N2CCCCC2)CC(=O)N(C)CC(=O)N(C)[C@@H](Cc2ccccc2)C(=O)N[C@@H](C(C)C)C(=O)N(C)[C@@H](CC(C)C)C(=O)N[C@@H](COC[C@@H](C)O)C1=O [AP87] ([Sar][NMeF]V[NMeL]S(Propyl(2R-OH))[NBuGly][NMeF][NMeL]S(tBu)[NMeL]D-Piperidide; lactam N-11) as the compound, how does the Papp read?
Answer: 1 ×10⁻⁶ cm/s
